The values that follow come from patent publication US20120283428A1, “HYALURONIC ACID DERIVATIVE EFFECTIVE AGAINST ATOPIC DERMATITIS, AND METHOD FOR MANUFACTURING SAME” (CELLINBIO CO.,LTD, priority 2009, published 2012).

This assay deals with PGE2. Kind of assay: PGE2 level in LPS-stimulated macrophage cell-line, ELISA. Type of assay: cell-based, mouse. Conditions: RAW 264.7, 500 ng/ml LPS, 10 mg/ml test substance, 24 hours, compared to control (FIG. 2). The procedure: As a positive control, ascorbic acid (AA) and a mixture of hyaluronic acid and ascorbic acid (HA+AA) was used in this Example. PGE2 is a substance causing inflammation, edema, pain and fever in body. Microphage cell-line (RAW 264.7) was inoculated into medium containing DMEM (Dulbecco's modified Eagle's medium)/FBS (Fetal Bovine Serum) under a condition of […] of CO2 concentration at a temperature of 37° C. in order to culture the cell-line. […] The complete medium was cultured additionally for 24 hours, and then PGE2 level in supernatant of medium was assayed by ELISA (enzyme-linked Immunosorbent Assay) analysis. […] Each well was washed, and then substrate solution was added.
On the technique in general: An ELISA detects its analyte on a solid surface through an enzyme-linked reagent.

For the compound `O=C1O[C@H]([C@@H](O)CO)C(O)=C1O` [AA, ascorbic acid], the “PGE2 level in supernatant of medium” value is reported as “decrease PGE2 significantly”.
